Results from patent US10759799B2, “Indazole containing macrocycles and therapeutic uses thereof” (Samumed, LLC, priority 2018, dated 2020).

Key:
[1] = tested on: Wnt activity (Sp5-Luc reporter, SW480 colon carcinoma cells); assay: Sp5-Luc reporter gene screening assay for Wnt activity in SW480 cells; assay type: cell-based; conditions: Homo sapiens; Sp5-Luc reporter, SW480 cells, 36 to 48 hours
Text: The screening assay for Wnt activity is described as follows. Reporter cell lines can be generated by stably transducing cancer cell lines (e.g., colon cancer) or primary cells (e.g., IEC-6 intestinal cells) with a lentiviral construct that includes a Wnt-responsive promoter driving expression of the firefly luciferase gene.
SW480 colon carcinoma cells were transduced with a lentiviral vector expressing luciferase with a human Sp5 promoter consisting of a sequence of eight TCF/LEF binding sites. SW480 cells stably expressing the Sp5-Luc reporter gene and a hygromycin resistance gene were selected by treatment with 150 μg/mL of hygromycin for 7 days. These stably transduced SW480 cells were expanded in cell culture and used for all further screening activities. […] For Sp5-Luc reporter gene assays, the cells were plated at 4,000 cells/well in 384-well plates with a DMEM medium containing 1% fetal bovine serum, and 1% Penicillin-Streptomycin and incubated for 36 to 48 hours at 37° C. and 5% CO2. Following incubation, 15 μl of BriteLite Plus luminescence reagent (Perkin Elmer) was added to each well of the 384-well assay plates. The plates were placed on an orbital shaker for 2 min and then luminescence was quantified using the Envision (Perkin Elmer) plate reader. Readings were normalized to DMSO only treated cells, and normalized activities were utilized for EC50 calculations using the dose-response log (inhibitor) vs. response-variable slope (four parameters) nonlinear regression feature available in GraphPad Prism 5.0 (or Dotmatics).

[2] = biological target: recombinant DYRK1A kinase (Homo sapiens (Human), UniProt Q13627); assay: DYRK1A kinase assay (Ser/Thr 18 peptide Z-lyte, FRET); assay type: biochemical; conditions: 30 μM ATP, one hour at room temperature, read-out: EC50 (μM) (IC50 per method)
Text: Representative compounds were screened using the assay procedure for DYRK1A kinase activity as described below.
The DYRK1A kinase assay was run using the Ser/Thr 18 peptide Z-lyte assay kit according to manufacturer's instructions (Life Technologies—a Division of Thermo-Fisher). This is a non-radioactive assay using fluorescence resonance energy transfer (FRET) between coumarin and fluorescein to detect kinase activity which is represented as a ratio of coumarin emission/fluorescein emission.
Briefly, recombinant DYRK1A kinase, ATP and Ser/Thr peptide 18 were prepared in 1× Kinase buffer to final concentrations of 0.19 μg/mL, 30 μM, and 4 μM respectively. The mixture was allowed to incubate with the representative compounds for one hour at room temperature. All reactions were performed in duplicate. Unphosphorylated (“0% Control”) and phosphorylated (“100% control”) forms of Ser/Thr 18 served as control reactions. Additionally, an 11-point dose-response curve of Staurosporine (1 uM top) was run to serve as a positive compound control.
After incubation, Development Reagent A was diluted in Development Buffer then added to the reaction and allowed to further incubate for one hour at room temperature. The plate was read at Ex 400 Em 455 to detect the coumarin signal and Ex 400 Em 520 to measure the signal (EnVision Multilabel Plate Reader, PerkinElmer).
The Emission ratio (Em) was calculated as a ratio of the coumarin (C) emission signal (at 445 nm)/Fluorescein (F) emission signal (at 520 nm). The percent phosphorylation was then calculated using the following formula: [1−((Em ratio×F100%)−C100%)/((C0%−C100%)+(Em ratio×(F100%−F0%)))].

[3] = tested on: IL-6; assay: IL-6 inhibition in LPS-stimulated human PBMCs (HTRF); assay type: cell-based; conditions: PBMC, huPBMCs, LPS 50 ng/mL, 22 hours, IL-6 HTRF
Method: Fresh Normal PB MNC (Catalog # PB001, AllCells, Alameda, Calif.) were shipped overnight at 4° C. and resuspended in Roswell Park Memorial Institute (RPMI) 1640 Medium, with GlutaMAX Supplement (Catalog #61870127, ThermoFisher Scientific, Waltham, Mass.) supplemented with 1% Penicillin-Streptomycin (Catalog #15140163, ThermoFisher Scientific, Waltham, Mass.) and 1% fetal bovine serum (FBS) (Catalog #16140089, ThermoFisher Scientific, Waltham, Mass.) assay media.
Compound Screening: Fresh normal human peripheral blood mononuclear cells (huPBMCs) were resuspended in 1% FBS-RPMI assay media with 1% Penicillin-Streptomycin 1% to a cell concentration of 1×10e6 cells/mL. […] 50 ng/mL of Lipopolysaccharides from Escherichia coli 0111:B4 (Catalog # L5293-2ML, Sigma-Aldrich, St. Louis, Mo.) was added after 2 hours and cells were incubated for another 22 hours at 37° C.-5% CO2. After 22 hour incubation, a mixture of anti-IL6 XL665 and anti-IL-6 Cryptate diluted in reconstitution buffer (Catalog #62IL6PEC, Cisbio Inc., Bedford, Mass.) was added to each well. Following incubation for 3 hours at room temperature, Homogeneous Time-Resolved Fluorescence (HTRF) was measured using the Envision (Perkin Elmer, Shelton, Conn.) at 665 nm and […]. The ratio of fluorescence at 665 nm to 620 nm was used as a readout for IL-6 quantification. All samples were processed in duplicate. Readings were normalized to DMSO treated cells and normalized activities were utilized for EC50 calculations. EC50 was determined using software generated by Dotmatics Limited (Windhill Bishops Stortford Herts, UK) using the Levenberg-Marquardt 4 parameter fitting procedure with finite different gradients.

[4] = tested on: primary human mesenchymal stem cells (hMSCs); assay: Chondrogenesis induction in hMSCs (Rhodamine B staining intensity, EC50); assay type: cell-based; conditions: 6 days, Rhodamine B staining intensity of nodules
Text: Representative compounds were screened using primary human mesenchymal stem cells (hMSCs) to determine their ability to induce chondrogenesis (process by which cartilage is developed).
Primary human mesenchymal stem cells (hMSCs) were purchased from Lonza (Walkersville, Md.) and expanded in Mesenchymal Stem Cell Growth Media (Lonza). Cells between passage 2 and 4 were used for the experiments.
To image chondrogenic nodules, the cells were fixed using 4% formaldehyde (Electron Microscopy Sciences), and stained with 2 μg/mL Rhodamine B (Sigma-Aldrich) and 20 μM Nile Red (Sigma-Aldrich) [Johnson K., et. al, A Stem Cell-Based Approach to Cartilage Repair, Science, (2012), 336(6082). […] Rhodamine B staining intensity of nodules in each well was normalized to the average of 3 DMSO treated wells on the same plate using Excel (Microsoft Inc.). The normalized averages (fold change over DMSO) of 3 replicate wells for each compound concentration were calculated. EC50 values were calculated using non-linear regression curve fitting in Prism 8 (Graphpad Inc.). Due to solubility limitations of some of the compounds, curve fitting was incomplete, and the highest observed activity was extrapolated to the insoluble doses for accurate EC50 determinations.
EC50 values are reported. Further, using TGF-β3 as a positive control, the concentration of representative compounds required to induce equivalent levels of chondrogenesis is reported. In addition, the maximum activity of each compound and the respective dose that each compound reached maximum chondrogenesis activity is reported.

EC50 [1] | IC50 [2] | EC50 [3] | EC50 [4] | SMILES
82 nM | 0.412 µM | 241 nM | 69 nM | CN1Cc2cccc(c2)-c2cccc3[nH]c(nc23)-c2n[nH]c3ccc(cc23)-c2cnn(C)c2C1 [Compound 29]
42 nM | 0.003 µM | 65 nM | 206 nM | c1cc2cc(c1)-c1cncc3[nH]c(nc13)-c1n[nH]c3ccc(cc13)-c1cncc(c1)CNC2 [Compound 8, (Z)-2^3H,3H-6-Aza-2(7,2)-imidazo[4,5-c]pyridina-3(3,5)-indazola-4(3,5)-pyridina-1(1,3)-benzenacycloheptaphane]
22 nM | 0.266 µM | 381 nM | 12 nM | O=C1CCc2cccc(c2)-c2cccc3[nH]c(nc23)-c2n[nH]c3ccc(cc23)-c2cncc(c2)N1 [Compound 1]
